From patent US4414332A (Boehringer Mannheim GmbH, priority 1980, dated 1983)
“Also recorded” adds a separate entry of the source. Where two headings read alike, the source gives them in different places.

Target: T1, endoproteinase-Lys-C (Lysobacter enzymogenes, UniProt Q7M135)
T1 construct: consists of a chain of molecular weight 35000 to 38000 Dalton; made in house
Test: Inhibition of endoproteinase-Lys-C by protease inhibitors
Format: biochemical, Lysobacter enzymogenes ssp. enzymogenes

T1 sequence (Q7M135 whole entry): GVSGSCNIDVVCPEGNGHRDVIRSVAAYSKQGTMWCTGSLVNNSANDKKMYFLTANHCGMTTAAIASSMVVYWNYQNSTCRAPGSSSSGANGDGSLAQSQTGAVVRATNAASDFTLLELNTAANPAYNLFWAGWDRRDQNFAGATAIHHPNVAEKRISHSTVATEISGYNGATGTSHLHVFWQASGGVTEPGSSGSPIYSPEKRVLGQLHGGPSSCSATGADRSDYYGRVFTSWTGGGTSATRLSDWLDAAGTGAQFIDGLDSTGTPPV

Compound	inhibition of the enzyme	further results
α1 -antitrypsin	not inhibited; also recorded: do not inhibit	–
aprotinin	inhibited	inhibition of the enzyme (listed as Aprotonin): inhibits the enzyme completely
α2 -macroglobulin	not inhibited	inhibition of the enzyme (listed as alpha2 microglobulin): do not inhibit
N=C(N)c1ccccc1 [Benzamidine]	–	inhibition at 2500 µM (at 2.5 mM, read-out: inhibition of the enzyme): ~50%
O=C(O)CN(CCN(CC(=O)O)CC(=O)O)CC(=O)O [ethylenediaminetetraacetic acid]	not inhibited	inhibition of the enzyme (EDTA up to 10^-2 M): do not inhibit
